{"source": "patent US6444705B1", "about": "“Angiogenesis inhibitors” (Santen Pharmaceutical Co., Ltd., priority 1998, dated 2002)", "test_system": "chick chorioallantonic membrane", "experiment": "Inhibitory effect on angiogenesis in the chick chorioallantonic membrane", "assay_type": "in vivo, chick (white leghorn)", "conditions": "pellet on embryo chorioallantonic membrane, cultured two days, rate = positive eggs/tested eggs x100", "protocol": "It was reported that effects of drugs on angiogenesis were evaluated using fertilized egg embryo chorioallantonic membrane as an in vivo angiogenesis evaluation model (Biochem. Biophys. Res. Commun., 174, 1070-1076 (1991)). Accordingly, effects of a cysteine derivative on the angiogenesis evaluation model were studied according to the assay described in the above-mentioned literature.\n1. Methyl cellulose (0.1 g) is dissolved in sterile purified water (10 ml) to prepare a 1% solution of methyl cellulose.\n2. A test compound is dissolved in ethanol/sterile purified water (1/1) to prepare a 24 μmol/ml solution.\n3. The 24 μmol/ml solution of the test compound is diluted with ethanol/sterile purified water (1/1) to prepare 12 μmol/ml and 6 μmol/ml solutions of the test compound.\n4. The solution (0.20 ml) of the test compound having each concentration is mixed with the 1% solution (0.20 ml) of methyl cellulose to prepare a mixed solution of the test compound.\n5. […]\nHatched eggs (white leghorn) of three days old after fertilization were put up by threes on a culture plate having six wells with their air phases upward and incubated in a CO2 incubator for 20 minutes (temperature: 37° C., humidity: 95%, CO2 concentration: 5%). […] Hatched eggs in which angiogenesis was not observed were defined as positive, and inhibition rates of angiogenesis were calculated by the following equation.", "note": "Structures can show the parent of a compound that is named as a salt."}
{"smiles": "CC(C)(CS)C(=O)NC(CS)C(=O)NCCCCCCN", "note": "(stereo in doubt) [N^1-(6-aminohexyl)-N^2-(2,2-dimethyl-3-mercaptopropionyl)-L-cysteinamide hydrochloride]", "values": [{"measurement": "Inhibition rate of angiogenesis (%)", "setting": "dose 0.06 μmol/egg", "result": 80, "unit": "%"}, {"measurement": "Inhibition rate of angiogenesis (%)", "setting": "dose 0.12 μmol/egg", "result": 93, "unit": "%"}]}
